Data published in patent US4036696A, “Preparation of antibiotics by fermentation” (priority 1976, dated 1977).
Entries after “also recorded” stand apart in the source; their conditions may differ. Where a name gives a salt, the structure may show the parent alone. Read-outs that look alike come from different tables or passages of the source.

Tests used:
[1] = test system: Alcaligenes faecalis (MB-9)
[2] = isoelectric point and pH stability; format: physicochemical
cephalosporinases [3] = assay: resistance to cephalosporinases / enzymatic degradation; format: biochemical
[4] = test system: Alcaligenes faecalis (MB-9); assay: bacterial inactivation by washed cells
Salmonella = assay: activity against Salmonella (in words); format: cell-based
Proteus mirabilis 241 = assay: bacterial inactivation
Method: (§1) These cultures are: Escherichia coli 236, Proteus morganii 251, Proteus morganii 356 and Proteus mirabilis 241. […] In conducting the assay, individual mixtures of the organisms and one of the antibiotics were sampled after 4 hours incubation and assayed for residual antibiotic activity. The procedure is the same assay method as described above against Alcaligenes faecalis MB-9 and A. viscosus MB-12.

Escherichia coli 236 = assay: bacterial inactivation
Method: as §1

Proteus morganii 356 [5] = assay: bacterial inactivation
Method: as §1

Proteus morganii 251 = assay: bacterial inactivation
Method: as §1

[6] = test system: Vibrio percolans (MB-1272); assay: disc-plate assay using Vibrio percolans
Paracolobactrum arizonae = assay: in vivo protection of infected mice; conditions: subcutaneous route × two doses
Method: (§2) Methods: The method employed in this characterization is as follows: Female white Swiss mice, average weight 20-23 grams, were infected intraperitoneally with 3-20 times the number of organisms calculated to be lethal for 50% of the infected control animals (3-20 LD50 doses). At the time of infection and again 6 hours later, therapy was given by the designated route. Controls of the virulence of the culture and the toxicity of the antibiotic for uninfected mice were included in the tests. Seven days after infection the test was considered complete and the amount of the antibiotic (I) that would be required to protect 50% of the infected and treated animals was calculated by the method of Knudsen and Curtis: J. Amer. Stat. Assoc. Vol. 42: page 282 (1947).
(§3) The method employed in these studies is the same as described above with regard to the in vivo characterization of 810A. The results of these tests are described below in Table XIb:
(§4) Administration was by subcutaneous injection. At the completion of the test period, usually 7 days after administration, the amount of product required to protect 50% of the mice (ED50) from this otherwise fatal injection was calculated: […]

Aerobacter aerogenes = assay: in vivo protection of infected mice; conditions: subcutaneous route × two doses
Method: as §2, §3, §4

Proteus morganii 3202 = assay: in vivo protection of infected mice; conditions: for protection of infected mice: subcutaneous, 4000 mg. × 2 doses (so in the source)
Method: as §2, §3, §4

Proteus mirabilis = assay: in vivo protection of infected mice; conditions: subcutaneous route × two doses
Method: as §2, §3, §4

Proteus vulgaris = assay: in vivo protection of infected mice; conditions: subcutaneous route × two doses
Method: as §2, §3, §4

Klebsiella pneumoniae B = assay: in vivo protection of infected mice; conditions: subcutaneous route × two doses
Method: as §2, §3, §4

[7] = test system: Diplococcus pneumoniae 2400; assay: in vivo protection of infected mice; conditions: subcutaneous route × two doses
Method: as §2, §3, §4

Klebsiella pneumoniae AD = assay: in vivo protection of infected mice; conditions: subcutaneous route × two doses
Method: as §2, §3, §4

Salmonella typhosa = assay: in vivo protection of infected mice; conditions: subcutaneous route × two doses
Method: as §2, §3, §4

Escherichia coli = assay: in vivo protection of infected mice; conditions: subcutaneous route × two doses
Method: as §2, §3, §4

[8] = test system: Salmonella schottmuelleri; assay: in vivo protection of infected mice; conditions: subcutaneous route × two doses
Method: as §2, §3, §4

Pasteurella multocida = assay: in vivo protection of infected mice; conditions: subcutaneous route × two doses
Method: as §2, §3, §4

[9] = test system: gram-negative and gram-positive organisms; assay: in vivo activity against infections (in words); design: species or system mice; conditions: for in vivo gram-negative potency compared with cephalothin: in general
Method: as §2
The method employed in these studies is the same as described above with regard to the in vivo characterization of 810A.

Proteus morganii 356 [10] = assay: mouse protection test, clinical isolate; format: in vivo, mice; conditions: subcutaneous route × 2 doses (average of two trials)
Method: as §2
Administration was by subcutaneous injection. At the completion of the test period, usually 7 days after administration, the amount of product required to protect 50% of the mice (ED50) from this otherwise fatal injection was calculated:
In addition to the aforementioned in vivo trials of the product, a clinical isolate of Proteus morganii 356 which is resistant to cephalosporins and capable of degrading cephalosporin C, was employed in a mouse protection test performed in the same manner as reported above.

[11] = blood appearance and urinary excretion; format: in vivo; conditions: within four hours after administration; 240 min
[12] = test system: Alcaligenes viscosus (MB-12); conditions: 4 h
[13] = test system: gram-negative and gram-positive bacteria; assay: antibacterial activity (in words); format: cell-based
[14] = test system: Aerobacter cloacae (MB-2646); assay: inactivation by cell-free filtrate; format: biochemical; conditions: for Antibiotic Activity Remaining: starting concentration 250 μg./ml.
Method: The ability of Antibiotic 810A and cephalosporin C to withstand the degradative effect of the culture Aerobacter cloacae (MB-2646) was also determined. This culture is gram-negative and resistant to cephalosporin C. […] The source of the inactivating substance is a 1:160 dilution of the filtrate of an 18 hour 37° C. shake culture of Aerobacter cloacae MB-2646 in nutrient broth containing 0.2% yeast extract. Table XIV, infra, indicates the percent inactivation of Antibiotic 810A, cephalothin, cephaloridine and cephalosporin C on Vibrio percolans (MB-1272) via this method:
Using the same assay procedure as described above, Table XV, infra, indicates the relative resistance of Antibiotic 810A to enzymatic inactivation by Aerobacter cloacae. The starting concentration in 250 μg./ml. Results are expressed in μg./ml.

[15] = test system: Alcaligenes faecalis (MB-9); conditions: organism known to inactivate; cited from earlier work
cephalosporinases [16] = conditions: background statement; cited from earlier work
[17] = test system: Alcaligenes viscosus (MB-12); assay: bacterial inactivation by washed cells; conditions: 4 hour incubation; assayed on B. subtilis (MB-964)
penicillinase = conditions: background statement; cited from earlier work
[18] = test system: Alcaligenes viscosus (MB-12); conditions: organism known to inactivate; cited from earlier work
[19] = test system: gram-negative and gram-positive bacteria; conditions: background statement, cited from earlier work
[20] = 2 hour incubation, assay organism B. subtilis 964
[21] = 2 hour incubation, assay organism V. percolans 1272
[22] = 2 hour incubation, assayed on V. percolans (MB-1272)
[23] = 4 hours incubation, assayed on B. subtilis (MB-964)

With CO[C@@]1(NC(=O)CCC[C@@H](N)C(=O)O)C(=O)N2C(C(=O)O)=C(COC(N)=O)CS[C@@H]21 [Antibiotic 842A] the “Percent Inactivation After Incubation With Washed Bacterial Cells” value ([1]; 4 h) was 0%, the stability ([2]; above pH 7) was “unstable” and the stability ([2]; above pH 9.0) was “unstable”. For the same compound, the stability ([2]; pH 1.5) was “relatively stable”, the stability ([2]; pH 1.5, listed as 842A) was “stable” and the resistance to cephalosporinases (cephalosporinases [3]) was “a greater resistance to cephalosporinases”. The “resistance to enzymatic degradation compared with cephalosporin C” value (cephalosporinases [3]) was “more resistant to enzymatic degradation than cephalosporin C”, the “resistance to inactivation compared with cephalosporin C” value ([4]; A. faecalis, A. viscosus, E. coli 236, P. morganii 251 and 236 (so in the source), P. mirabilis 241) was “more resistant than cephalosporin C” and the “stability to bacterial inactivation” value ([4]; compared with cephalosporin C, cephaloridine and cephalothin, certain microorganisms) was “more stable than the latter against certain microorganisms”. The “activity against Salmonella species” value (Salmonella) was “exhibits activity against Salmonella schottmuelleri 3010, S. gallinarum and S. typhosa”, the percent inactivation (Proteus mirabilis 241; bacterial cells, 4 h) was 5% and the percent inactivation (Escherichia coli 236; bacterial cells, 4 h) was 38%. The percent inactivation (Proteus morganii 356 [5]; bacterial cells, 4 h) was 69%, the percent inactivation (Proteus morganii 251; bacterial cells, 4 h) was 80% and the inhibition zone ([6]; Example 9 broth after 4 days, 0.5 inch discs) was 33 mm. The ED50 (Paracolobactrum arizonae) was 125 µg, the ED50 (Aerobacter aerogenes) was 49 µg and the ED50 (Proteus morganii 3202; subcutaneous route × two doses) was 276 µg. For the same compound, the ED50 (Proteus mirabilis) was 276 µg, the ED50 (Proteus vulgaris) was 51 µg and the ED50 (Klebsiella pneumoniae B) was 125 µg. It also gave an ED50 [7] of 566 µg, an ED50 (Klebsiella pneumoniae AD) of 125 µg and an ED50 (Salmonella typhosa) of 34 µg. For the same compound, the ED50 (Escherichia coli) was 200 µg, the ED50 [8] was 103 µg and the ED50 (Pasteurella multocida) was 57 µg. For the same compound, the “oral protection against infections” value ([9]; given orally) was “protects against infections due to Paracolobactrum arizonae 3270, Proteus vulgaris 1810, and Salmonella schottmuelleri 3010”, the “in vivo gram-negative potency compared with cephalothin” value [9] was “greater than cephalothin” and the “in vivo gram-negative potency compared with cephalothin” value ([9]; listed as 842A) was “generally increased gram-negative effect and an increased potency when compared to cephalothin”. For the same compound, the “in vivo activity / protection against infections” value ([9]; mouse, in vivo) was “effectiveness in vivo on Proteus morganii and an effectiveness against the following gram-negative bacteria: Escherichia coli, Proteus vulgaris, Proteus mirabilis, Proteus morganii, Salmonella schottmuelleri, Klebsiella pneumoniae AD, Klebsiella pneumoniae B, and Paracolobactrum arizonae; also recorded: protects against infection with three species of Proteus, two of Salmonella, one strain of Escherichia coli, two of Klebsiella and also against Paracolobactrum arizonae, Aerobacter aerogenes, Pasteurella multocida and Diplococcus pneumoniae 2400”, the “protection from gram-negative infection compared with known antibiotics” value ([9]; subcutaneously to mice) was “generally more active than cephalothin; also recorded: approximately equal to cephaloridine, ampicillin and chloromycetin” and the ED50 (Proteus morganii 356 [10]) was 273 µg. The “eliminated in the urine” value [11] was “approximately 80%”, the “Percent Inactivation After Incubation With Washed Bacterial Cells” value [12] was 54.4% and the “antibacterial effect (in words)” value [13] was “enhanced activity against gram-negative microorganisms”. The bactericidal action [13] was “bactericidal”, the development of resistance [13] was “resistance to it develops slowly” and the “growth inhibition of gram-negative bacteria” value ([13]; in vitro) was “inhibits the growth of the following gram-negative bacteria: Escherichia coli, Proteus vulgaris, Alcaligenes faecalis, Brucella bronchiseptica, Salmonella gallinarum, Vibrio percolans and Xanthomonas vesicatoria”. The “growth inhibition of gram-positive bacteria” value ([13]; in vitro) was “inhibits the growth of the following gram-positive bacteria: Staphylococcus aureus, Sarcina lutea and Bacillus subtilis”.

For O=C(Cc1cccs1)N[C@@H]1C(=O)N2C(C(=O)[O-])=C(C[n+]3ccccc3)CS[C@H]12 [Cephaloridine], the “Percent Inactivation After Incubation With Cell-Free Extract” value ([14]; aerobacter cloacae culture filtrate, 2 h) was 96%, the “Antibiotic Activity Remaining” value [14, 20] was < 10 µg/mL and the “Antibiotic Activity Remaining” value [14, 21] was < 10 µg/mL. For the same compound, the “protection of infected mice” value (Proteus morganii 3202) was “failed to protect” and the ED50 (Proteus morganii 356 [10]) was 9,270 μg.

For CC(=O)OCC1=C(C(=O)O)N2C(=O)[C@@H](NC(=O)CCC[C@@H](N)C(=O)O)[C@H]2SC1 [Cephalosporin C], the “inactivation of cephalosporin C” value [15] is listed as “completely inactivate”, the behaviour toward cephalosporinases (cephalosporinases [16]) is listed as “effective in destroying its activity” and the “Percent Inactivation After Incubation With Cell-Free Extract” value [14, 22] is listed as 96%. For the same compound, the “Percent Inactivation After Incubation With Washed Bacterial Cells” value ([4]; 3 hour incubation, assayed on B. subtilis (MB-964), 4 mg./ml.) was > 99%, the “Percent Inactivation After Incubation With Washed Bacterial Cells” value ([4]; 3 hour incubation, assayed on V. percolans (MB-1272)) was > 99% and the “Percent Inactivation After Incubation With Washed Bacterial Cells” value ([4]; 4 hour incubation, assayed on B. subtilis (MB-964)) was > 99%. For the same compound, the percent inactivation (Proteus mirabilis 241; [23]) was 72%, the percent inactivation (Escherichia coli 236; [23]) was > 99% and the percent inactivation (Proteus morganii 356 [5]; [23]) was > 99%. For the same compound, the percent inactivation (Proteus morganii 251; [23]) was > 99%, the “Percent Inactivation After Incubation With Washed Bacterial Cells” value [17] was > 99% and the behaviour toward penicillinase (penicillinase) was “inherent resistance to penicillinase”. For the same compound, the “inactivation of cephalosporin C” value [18] was “completely inactivate”, the antibacterial activity [19] was “only moderately active” and the antibacterial activity ([19]; listed as cephalosporin C) was “relatively low antibacterial activity”.

In the case of CC(=O)OCC1=C(C(=O)O)N2C(=O)[C@@H](NC(=O)Cc3cccs3)[C@H]2SC1 [Cephalothin], the “Percent Inactivation After Incubation With Washed Bacterial Cells” value ([1]; 3 h) is reported as 50%, the “Percent Inactivation After Incubation With Cell-Free Extract” value [14, 22] is reported as 66% and the “Antibiotic Activity Remaining” value [14, 20] is reported as 140 µg/mL. For the same compound, the “Antibiotic Activity Remaining” value [14, 21] was 85 µg/mL, the “protection of infected mice” value (Proteus morganii 3202) was “failed to protect” and the ED50 (Proteus morganii 356 [10]) was > 20,000 μg.

In the case of CC1(C)S[C@@H]2[C@H](NC(=O)Cc3ccccc3)C(=O)N2[C@H]1C(=O)O [Penicillin G], the behaviour toward penicillinase (penicillinase) is given as “degraded to a form which is ineffective against most pathogens”.

For CO[C@@]1(NC(=O)CCC[C@@H](N)C(=O)O)C(=O)N2C(C(=O)O)=C(COC(N)=O)CS[C@@H]21 [Sodium Salt], the IC (25 mm zone) ([6]; Comamonas terrigena, read-out: concentration giving a 25 mm. zone, Example 11 concentrate at a dilution of 1:100) was 400 µg/mL.
